27 molecules from patent US9828385B2, “Spiro-oxazolones” (Hoffmann-La Roche Inc., priority 2014, dated 2017) can be followed below.

This assay addresses T1, human V1a receptor (Homo sapiens, UniProt P37288).
T1 construct: expressed in transfected cells; host or cells: HEK293 cells, transiently transfected; cell membranes
The assay can be described thus: human V1a receptor binding studies (3H-Vasopressin, SPA beads). The following applies: membranes of HEK293 cells transiently transfected with human V1a receptor, Ki by Cheng-Prussoff from IC50, read-out: pKi hV1a (converted). On the procedure:
The human V1a receptor was cloned by RT-PCR from total human liver RNA. The coding sequence was subcloned in an expression vector after sequencing to confirm the identity of the amplified sequence. […] Cell membranes were prepared from HEK293 cells transiently transfected with the expression vector and grown in 20 liter fermenters with the following protocol.
50 g of cells are re-suspended in 30 ml freshly prepared ice cold Lysis buffer (50 mM HEPES, 1 mM EDTA, 10 mM MgCl2 adjusted to pH=7.4+complete cocktail of protease inhibitor (Roche Diagnostics)). Homogenized with Polytron for 1 min and sonicated on ice for 2×2 minutes at 80% intensity (Vibracell sonicator). The preparation is centrifuged 20 min at 500 g at 4° C., the pellet is discarded and the supernatant centrifuged 1 hour at 43′000 g at 4° C. (19′000 rpm). The pellet is re-suspended in 12.5 ml Lysis buffer+12.5 ml Sucrose 20% and homogenized using a Polytron for 1-2 min. The protein concentration is determined by the Bradford method and aliquots are stored at −80° C. until use. For binding studies 60 mg Yttrium silicate SPA beads (Amersham) are mixed with an aliquot of membrane in binding buffer (50 mM Tris, 120 mM NaCl, 5 mM KCl, 2 mM CaCl2, 10 mM MgCl2) for 15 minutes with mixing. 50 μl of bead/membrane mixture is then added to each well of a 96 well plate, followed by 50 μl of 4 nM 3H-Vasopressin (American Radiolabeled Chemicals). For total binding measurement 100 μl of binding buffer are added to the respective wells, for non-specific binding 100 μl of […] cold vasopressin and for compound testing 100 μl of a serial dilution of each compound in 2% DMSO. The plate is incubated 1 h at room temperature, centrifuged 1 min at 1000 g and counted on a Packard Top-Count. Non-specific binding counts are subtracted from each well and data is normalized to the maximum specific binding set at 100%. To calculate an IC 50 the curve is fitted using a non-linear regression model (XLfit) and the Ki is calculated using the Cheng-Prussoff equation.

T1 sequence (P37288 whole entry): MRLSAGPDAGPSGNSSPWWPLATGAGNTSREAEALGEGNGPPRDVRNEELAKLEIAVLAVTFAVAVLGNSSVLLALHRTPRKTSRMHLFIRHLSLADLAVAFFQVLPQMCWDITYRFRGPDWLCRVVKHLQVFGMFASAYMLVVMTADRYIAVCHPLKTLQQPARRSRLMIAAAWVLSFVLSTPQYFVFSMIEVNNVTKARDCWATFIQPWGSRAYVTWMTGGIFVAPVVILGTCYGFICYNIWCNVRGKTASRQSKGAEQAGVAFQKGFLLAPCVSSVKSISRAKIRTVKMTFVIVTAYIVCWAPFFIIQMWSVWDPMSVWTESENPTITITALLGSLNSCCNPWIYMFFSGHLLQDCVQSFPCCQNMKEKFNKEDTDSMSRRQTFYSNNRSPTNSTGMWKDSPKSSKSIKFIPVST

On to `CCCCC1OC(N2CCC3(CC2)OC(=O)c2ccccc23)=NC1=O` (single isomer, unassigned; enantiomer b) [Example 6, 1′-[5-Butyl-4-oxo-4,5-dihydro-1,3-oxazol-2-yl]-3H-spiro[2-benzofuran-1,4′-piperidin]-3-one enantiomer B], for which the Ki is 20 nM. To `O=C1N=C(N2CCC3(CC2)OCc2ccccc23)OC12CCCOC2` (stereo not drawn) [Example 125, 2-(1′H,3H-Spiro[2-benzofuran-1,4′-piperidin]-1′-yl)-1,7-dioxa-3-azaspiro[4.5]dec-2-en-4-one] belongs 200 nM.

For the molecule `CCCCCC1CCC2(CC1)OC(N1CCC3(CC1)OC(=O)c1ccccc13)=NC2=O` (single isomer, unassigned; diastereomer a) [Example 126, 1′-[4-Oxo-8-pentyl-1-oxa-3-azaspiro[4.5]dec-2-en-2-yl]-3H-spiro[2-benzofuran-1,4′-piperidin]-3-one diastereomer a], the Ki is 31.6 nM. Take `O=C1N=C(N2CCC3(CC2)OCc2ccccc23)O[C@@H]1Cc1ccccc1` [Example 18, (+)-(5R)-5-Benzyl-2-(1′H,3H-spiro[2-benzofuran-1,4′-piperidin]-1′-yl)-1,3-oxazol-4(5H)-one]: the Ki was 1.58 nM.

Regarding `O=C1N=C(N2CCC3(CC2)OCc2ccccc23)OC1C(F)c1ccc(Cl)cc1` (single isomer, unassigned) [Example 48, 5-((4-Chlorophenyl)fluoromethyl)-2-(1′H,3H-spiro[2-benzofuran-1,4′-piperidin]-1′-yl)-1,3-oxazol-4(5H)-one diastereomer b, enantiomer A], the Ki is 39.8 nM.

For the molecule `C=CCC1(CC(=C)C)OC(N2CCC3(CC2)OCc2ccccc23)=NC1=O` (stereo not drawn) [Example 59, 5-Allyl-5-(2-methylallyl)-2-(1′H,3H-spiro[2-benzofuran-1,4′-piperidin]-1′-yl)-1,3-oxazol-4(5H)-one], the Ki is 10 nM. The same measure for `O=C1N=C(N2CCC3(CC2)OCc2ccccc23)OC12CCCCC2` [Example 123, 2-(1′H,3H-Spiro[2-benzofuran-1,4′-piperidin]-1′-yl)-1-oxa-3-azaspiro[4.5]dec-2-en-4-one]: 10 nM; for `CC1(CC2CCCOC2)OC(N2CCC3(CC2)OCc2ccccc23)=NC1=O` (single isomer, unassigned; diastereomer a) [Example 103, (−)-5-Methyl-2-(1′H,3H-spiro[2-benzofuran-1,4′-piperidin]-1′-yl)-5-(tetrahydro-2H-pyran-3-ylmethyl)-1,3-oxazol-4(5H)-one diastereomer a]: 10 nM; for `CC1(Cc2ccccc2)OC(N2CCC3(CC2)OCc2ccccc23)=NC1=O` (single isomer, unassigned; (+)) [Example 70, (+)-5-Benzyl-5-methyl-2-(1′H,3H-spiro[2-benzofuran-1,4′-piperidin]-1′-yl)-1,3-oxazol-4(5H)-one]: 7.94 nM.

Take `CCCCC1(C)OC(N2CCC3(CC2)OC(=O)c2ccccc23)=NC1=O` (stereo not drawn) [Example 69, 1′-(5-Butyl-5-methyl-4-oxo-4,5-dihydro-1,3-oxazol-2-yl)-3H-spiro[2-benzofuran-1,4′-piperidin]-3-one]: the Ki was 316 nM. The same measure for `O=C1N=C(N2CCC3(CC2)c2ccccc2CS3(=O)=O)OC12Cc1ccccc1C2` [Example 150, 2′-(2,2-Dioxido-1′H,3H-spiro[2-benzothiophene-1,4′-piperidin]-1′-yl)-1,3-dihydro-4′H-spiro[indene-2,5′-[1,3]oxazol]-4′-one]: 0.251 nM; for `CC1(C(O)c2ccc(Cl)cc2)OC(N2CCC3(CC2)OCc2ccccc23)=NC1=O` (stereo not drawn) [Example 91, 5-[(4-Chlorophenyl)(hydroxy)methyl]-5-methyl-2-(1′H,3H-spiro[2-benzofuran-1,4′-piperidin]-1′-yl)-1,3-oxazol-4(5H)-one]: 25.1 nM; for `CC1(Cc2ccc(Cl)nc2)OC(N2CCC3(CC2)OCc2ccccc23)=NC1=O` (single isomer, unassigned; (+)) [Example 84, (+)-5-[(6-Chloropyridin-3-yl)methyl]-5-methyl-2-(1′H,3H-spiro[2-benzofuran-1,4′-piperidin]-1′-yl)-1,3-oxazol-4(5H)-one]: 501 nM. The same measure for `O=C1N=C(N2CCC3(CC2)OCc2ccccc23)OC1C(O)c1ccc(Cl)cc1` (single isomer, unassigned; diastereomer b) [Example 45, (+)-5-[(4-Chlorophenyl)(hydroxy)methyl]-2-(1′H,3H-spiro[2-benzofuran-1,4′-piperidin]-1′-yl)-1,3-oxazol-4(5H)-one diastereomer b]: 15.8 nM. To `O=C1N=C(N2CCC3(CC2)OCc2ccccc23)OC1C(O)c1ccc(Cl)cc1` (single isomer, unassigned; diastereomer b) [Example 44, (−)-5-[(4-Chlorophenyl)(hydroxy)methyl]-2-(1′H,3H-spiro[2-benzofuran-1,4′-piperidin]-1′-yl)-1,3-oxazol-4(5H)-one diastereomer b] belongs 126 nM; to `O=C1N=C(N2CCC3(CC2)OCc2ccccc23)OC1c1ccccc1` (stereo not drawn) [Example 12, 5-Phenyl-2-(1′H,3H-spiro[2-benzofuran-1,4′-piperidin]-1′-yl)-1,3-oxazol-4(5H)-one], 316 nM; to `O=C1N=C(N2CCC3(CC2)OCc2ccccc23)OC1Cc1ccccc1` (stereo not drawn) [Example 17, 5-Benzyl-2-(1′H,3H-spiro[2-benzofuran-1,4′-piperidin]-1′-yl)-1,3-oxazol-4(5H)-one], 3.98 nM. For `C=CCC1OC(N2CCC3(CC2)OCc2ccccc23)=NC1=O` (stereo not drawn) [Example 8, 5-(Prop-2-en-1-yl)-2-(1′H,3H-spiro[2-benzofuran-1,4′-piperidin]-1′-yl)-1,3-oxazol-4(5H)-one], the Ki was 158 nM.

`O=C1N=C(N2CCC3(CC2)OCc2cccnc23)OC1Cc1ccccc1` (stereo not drawn) [Example 29, 5-Benzyl-2-(1′H,5H-spiro[furo[3,4-b]pyridine-7,4′-piperidin]-1′-yl)-1,3-oxazol-4(5H)-one]: the Ki was 10 nM. Regarding `CC1(Cc2ccc(Cl)nc2)OC(N2CCC3(CC2)OCc2ccccc23)=NC1=O` (single isomer, unassigned; (-)) [Example 83, (−)-5-[(6-Chloropyridin-3-yl)methyl]-5-methyl-2-(1′H,3H-spiro[2-benzofuran-1,4′-piperidin]-1′-yl)-1,3-oxazol-4(5H)-one], the Ki is 39.8 nM.

Turning to `O=C1N=C(N2CCC3(CC2)OCc2cccc(F)c23)OC1Cc1ccccc1` (stereo not drawn) [Example 23, 5-Benzyl-2-(7-fluoro-1′H,3H-spiro[2-benzofuran-1,4′-piperidin]-1′-yl)-1,3-oxazol-4(5H)-one], the Ki was 2.51 nM. With `CC(C)(C)OC(=O)N1CCC2(CC1)OC(N1CCC3(CC1)OCc1ccccc13)=NC2=O` [Example 134, tert-Butyl 4-oxo-2-(1′H,3H-spiro[2-benzofuran-1,4′-piperidin]-1′-yl)-1-oxa-3,8-diazaspiro[4.5]dec-2-ene-8-carboxylate], the Ki was 158 nM. To `O=C1OC2(CCN(C3=NC(=O)C(C(O)c4ccc(Cl)cc4)O3)CC2)c2ccccc21` (single isomer, unassigned) [Example 50, 1′-{-5-[(4-Chlorophenyl)(hydroxy)methyl]-4-oxo-4,5-dihydro-1,3-oxazol-2-yl}-3H-spiro[2-benzofuran-1,4′-piperidin]-3-one diastereomer a, enantiomer A] belongs 20 nM; to `CC1(CC2CCOC2)OC(N2CCC3(CC2)OCc2ccccc23)=NC1=O` (single isomer, unassigned; diastereomer a) [Example 99, 5-Methyl-2-(1′H,3H-spiro[2-benzofuran-1,4′-piperidin]-1′-yl)-5-(tetrahydrofuran-3-ylmethyl)-1,3-oxazol-4(5H)-one diastereomer a], 251 nM; to `CCOC(=O)C1=CCC2(C1)OC(N1CCC3(CC1)OCc1ccccc13)=NC2=O` (stereo not drawn) [Example 116, Ethyl 4-oxo-2-(1′H,3H-spiro[2-benzofuran-1,4′-piperidin]-1′-yl)-1-oxa-3-azaspiro[4.4]nona-2,7-diene-7-carboxylate], 126 nM.

As to `CCCCC1OC(N2CCC3(CC2)OC(=O)c2ccccc23)=NC1=O` (single isomer, unassigned; enantiomer a) [Example 5, 1′-[5-Butyl-4-oxo-4,5-dihydro-1,3-oxazol-2-yl]-3H-spiro[2-benzofuran-1,4′-piperidin]-3-one enantiomer A], the Ki is 251 nM. For the molecule `CO[C@H]1CC2(C[C@H]1OC)OC(N1CCC3(CC1)OCc1ccccc13)=NC2=O` (single isomer, unassigned; diastereomer a) [Example 122, 7,8-Dimethoxy-2-(1′H,3H-spiro[2-benzofuran-1,4′-piperidin]-1′-yl)-1-oxa-3-azaspiro[4.4]non-2-en-4-one diastereomer a], the Ki is 200 nM.
